Experiments:
Format in all cases: physicochemical
[1] = Elution of doxorubicin from high AMPS microspheres into distilled water
Description: High AMPS microspheres were loaded with various concentrations of doxorubicin and the microspheres eluted into 250 ml of distilled water (FIG. 2).
For the higher drug loadings, a burst effect is evident in the first few minutes, followed by a prolonged period of slower release. It is surmised that the burst represents the free drug eluting from the water held within the microspheres, whereas the prolonged elution results from the drug that is “bound” into the spheres essentially by ionic interaction between the charged groups. For the highest loading of drug (from the 20 mg/ml loading solution), the burst effect represents some 45% of the total drug loading of the spheres, the remainder taking several days to completely elute from the carrier. Studies have shown that 100% of the drug is eventually eluted from the microspheres. Drug-loaded beads were lyophilised to remove water and sterilised using gamma irradiation.

[2] = Maximum loading capacity of DEB with Doxorubicin and Mitoxantrone; details: beads 700-900 μm
Description: Microspheres of the invention were prepared as described in the Reference Example. Sample beads of the size range 700-900 μm were loaded by immersing the beads in aqueous solutions of Doxorubicin HCl (Dox) and Mitoxantrone 2HCl (Mitox). Loading was monitored using UV-visible spectroscopy at the respective wavelengths for absorption maxima of the two drugs (483 nm and 660 nm respectively). The beads were sized and imaged using an Olympus BX50F4 microscope with a Colorview III camcorder. Compressibility was measured using an Instron 4411 with a 50 N load cell.

[3] = AQ4 and AQ4N loading profile and maximum loading capacity of DC Bead; details: DC Bead 500-700 μm; AQ4N target loading 60 mg/mL, 20 hr
[4] = Irinotecan loading capacity of microspheres (depletion method, UV 369 nm); details: microspheres 500-700 μm, irinotecan solution 20 mg/ml, at least 4 hours
Description: Irinotecan-loading content and loading efficacy was determined using microspheres, 500-700 μm. A bead slurry was mixed with irinotecan solution (20 mg/ml) in calculated amount, rotating-mixed for at least 4 hours. The solution was measured with UV at 369 nm to determine the irinotecan concentration and the drug-loading in beads (by depletion method). […] Above this the loading efficacy dropped remarkably, indicating saturation of the beads.

[5] = Elution from irinotecan lyophilised microspheres into PBS buffer
Description: Irinotecan was eluted from lyophilised microspheres with different loadings of camptothecin into PBS buffer. The elution rate slowed down after lyophilisation when compared with the non-lyophilised samples. […] Drug-loaded beads were lyophilised to removed water and sterilised using gamma irradiation.

Row | drug eluting at 3 hours ([1]; 133.2 μg/ml and 2 mg/ml loaded microspheres, 250 ml distilled water) | drug eventually eluted from the microspheres ([1]; high AMPS microspheres) | burst effect as share of the total drug loading of the spheres ([1]; high AMPS microspheres, highest loading (20 mg/ml loading solution), 250 ml distilled water, first few minutes) | maximum loading capacity in DC Bead [3] | concentration range in which irinotecan content in beads increased linearly with loading amount (above it saturation of the beads) [4] | elution rate after lyophilisation compared with non-lyophilised samples [5] | Compound | Average (mg) of drug per mL of beads (average maximum capacity of DEB) [2] | Mols of loaded drug/Mols of available binding sites [2] | Average (mg) of drug per mL of beads (average maximum capacity of DEB) ([2]; listed as Mitox)
1 | below the detection limit | 100% | ~45% | 40 mg/mL |  |  | COc1cccc2c1C(=O)c1c(O)c3c(c(O)c1C2=O)C[C@@](O)(C(=O)CO)C[C@@H]3O[C@H]1C[C@H](N)[C@H](O)[C@H](C)O1 [Doxorubicin] | 39.0 mg per mL of beads | 0.9 | 
2 |  |  |  |  | below 50 mg/ml | slowed down | CCc1c2c(nc3ccc(OC(=O)N4CCC(N5CCCCC5)CC4)cc13)-c1cc3c(c(=O)n1C2)COC(=O)[C@]3(O)CC [Irinotecan] |  |  | 
3 |  |  |  |  |  |  | O=C1c2c(O)ccc(O)c2C(=O)c2c(NCCNCCO)ccc(NCCNCCO)c21 [Mitoxantrone] | 20.0 mg per mL of beads | 0.5 | 20 mg per mL of beads

From patent US8691791B2, “Microspheres for treatment of brain tumors” (Biocompatibles UK Limited, priority 2007, dated 2014)
